Experimental data: patent publication EP4624457A1, “I[…] DERIVATIVES, I[…] NEURODEGENERATIVE DISEASES” (Centre National de la Recherche Scientifique, priority 2024, dated 2025)
Values joined by “and” are separate entries in the source; they are usually repeats but may differ in a detail not shown here. Equal entries are not always repeated.

Tested on: A2780 ovarian carcinoma cells
Assay: Phosphatidylserine exposure assay (FITC-Annexin V / propidium iodide, flow cytometry)
Format: cell-based
Method: • Figure 1 represents the chemical structure of ingrilimine according to compound (Illa) formula. • Figure 2 represents the cytotoxic activity of ingrilimine. A2780 ovarian and HT29 colorectal carcinoma cells were grown in RPMI 1640 supplemented with 10% fetal calf serum (FCS) and 1% glutamine. U87-MG glioblastoma cells were grown in Dulbecco minimal essential medium containing 4.5 g/L glucose, 10% FCS and 1% glutamine at 37 °C in a humidified atmosphere containing 5% CO2. For IC50 determination, the cells were seeded in 96-well plates (3 × 10^3 cells/well) containing 90 µL of growth medium. After 24 h of culture, the cells were treated with ingrilimine at 10 different final concentrations. Cell viability was determined by luminescence after 72 h incubation. (a) Effect of ingrilimine on A2780 ovarian carcinoma cells. (b) Effect of ingrilimine on U87-MG glioblastoma cells. (c) Effect of ingrilimine on U87-MG glioblastoma cells • Figure 3a-3f represent the mitochondrial dysfunction provoked by ingrilimine. […] Sector Q normal cells that accumulated the JC-1 dye (fluorescence emission 590 nm). […] (a) Non-treated cells incubated with the carrier (DMSO) for 24 h. (b) HCT116 cells incubated with 10 nN ingrilimine for 24 h. (c) HCT116 cells incubated with 250 nM ingrilimine for 24 h. (d) Non-treated cells incubated with the carrier (DMSO) for 48 h. (e) HCT116 cells incubated with 10 nN ingrilimine for 48 h. (f) HCT116 cells incubated with 250 nM ingrilimine for 48. Changes in fluorescence emission were recorded by flow cytometry using the JC-1 mithocondrial membrane potential-dependent fluorescent dye. NT = non-treated cells; IngX = ingrilimine. • Figure 4a-4f represents phosphatidylserine exposure provoked by ingrilimine. […] Quadrants D1 and D2 with dead or necrotic cells, quadrant D3 with normal cells and quadrant D4 with apoptotic cells following phosphatidylserine exposure. (a) Non-treated A2780 cells incubated with the carrier (DMSO) for 24h. (b) A2780 cells incubated with 10 nM ingrilimine for 24 h. (c) A2780 cells incubated with 250 nM ingrilimine for 24 h. (d) Non-treated A2780 cells incubated with the carrier (DMSO) for 48 h. (e) A2780 cells incubated with 10 nM ingrilimine for 48 h. (f) A2780 cells incubated with 250 nM ingrilimine for 48. […] exposure in A2780 cell was quantified by flow cytometry using FITC-Annexin V. Dead or necrotic cells were detected using the vital dye propridium iodide. NT = non-treated cells; IngX = ingrilimine. • Figure 5 represents the antagonistic activity of ingrilimine (named "IngX" in the figure) and portimine (named "Port A" in the figure) against nicotinic acetylcholine receptors recorded by two-electrodes voltage clamp electrophysiology on Xenopus laevis oocytes. Clamped Xenopus laevis oocytes having incorporated the muscle (α1)2βγδ nAChR subtype from Torpedo marmorata (filled squares), or expressing the neuronal α3β2 nAChR subtype from rat (filled triangles), or expressing the human neuronal α7 nAChR subtype (filled circles) were exposed to portimine (100 nM - 1 mM) for 45 seconds. […] A Xenopus laevis oocyte expressing the human α7 nAChR subtype was exposed to 100 µM acetylcholine triggering the immediate opening of the receptor's channel (black bold line) followed by the very-fast closure of the channel ([…]) that became insensitive to acetylcholine during the rest of the 5 seconds exposure (desensitization). When a Xenopus laevis oocyte expressing the human α7 nAChR subtype was exposed first to 10 nM ingrilimine for 45 seconds and then to a mixture (Mix) containing 10 nM ingrilimine and 100 µM acetylcholine, the receptor's channel was closed denoting a strong antagonistic activity of the tested toxin against the α7 nAChR subtype (dotted line). […]

## C=CC1=C[C@@H]2C[C@@H](O)[C@@H](O)/C(C)=C/C/C(C)=C/CCC3=NCCC[C@]32CC1 [Ingrilimine, ingrilimine]
10 nM, 24 h
  Annexin V+/IP: 1.1%
10 nM, 48 h
  Annexin V+/IP: 0.8%
50 nM, 24 h
  Annexin V+/IP: 3.4%
50 nM, 48 h
  Annexin V+/IP: 10%
100 nM, 24 h
  Annexin V+/IP: 9.8%
100 nM, 48 h
  Annexin V+/IP: 20.4%
250 nM, 24 h
  Annexin V+/IP: 13.1%
250 nM, 24 h, listed as ingrilimine
  Annexin V+/IP: -13%
250 nM, 24 h, quadrant D2, late stage apoptotic, dead or necrotic cells
  percentage of propidium iodide positive and annexin V positive: 3.8%
250 nM, 48 h
  Annexin V+/IP: 31.3%
250 nM, 48 h, quadrant D2
  percentage of propidium iodide positive and annexin V positive: 17%
500 nM, 24 h
  Annexin V+/IP: 27.1%
Homo sapiens, A2780, 48 h, read-out: viable cells
  viability at 0.25 µM: 45%

## C=CC1=C[C@@H]2[C@@H]3O[C@]4(CC[C@H](O4)[C@@H](C)C[C@@H](O)C3=O)C[C@H](O)C3=NCC[C@@]32CC1 [Portimine-A]
1 nM, 24 h, early apoptotic cells (annexin V positive, propidium iodide negative)
  Annexin V+/IP: 3.4%
1 nM, 48 h
  Annexin V+/IP: 1.7%
5 nM, 24 h
  Annexin V+/IP: 6.4%
5 nM, 48 h
  Annexin V+/IP: 18.4%
10 nM, 24 h
  Annexin V+/IP: 13.1%
10 nM, 48 h
  Annexin V+/IP: 24.1%
20 nM, 24 h
  Annexin V+/IP: 13%
  percentage of late-stage apoptotic cells and or necrotic cells: 4.3%
20 nM, 48 h
  percentage of late-stage apoptotic cells and or necrotic cells: 15%
20 nM, 48 h, listed as Portimine
  Annexin V+/IP: 39% and 39.3%
50 nM, 24 h
  Annexin V+/IP: 22.8%
50 nM, 48 h treatment, quadrant D3
  viable cells: 40%
